Measurements: ChEMBL document CHEMBL1143483, “A new antitumor compound from the plant Oryctanthus sp. as a VEGF receptor binding inhibitor” (Bioorg Med Chem Lett, 2005)

Target: Vascular endothelial growth factor receptor 2 (Homo sapiens, UniProt P35968)
Assay: Inhibitory concentration against human Vascular endothelial growth factor receptor 2

Vascular endothelial growth factor receptor 2, sequence (P35968 whole entry): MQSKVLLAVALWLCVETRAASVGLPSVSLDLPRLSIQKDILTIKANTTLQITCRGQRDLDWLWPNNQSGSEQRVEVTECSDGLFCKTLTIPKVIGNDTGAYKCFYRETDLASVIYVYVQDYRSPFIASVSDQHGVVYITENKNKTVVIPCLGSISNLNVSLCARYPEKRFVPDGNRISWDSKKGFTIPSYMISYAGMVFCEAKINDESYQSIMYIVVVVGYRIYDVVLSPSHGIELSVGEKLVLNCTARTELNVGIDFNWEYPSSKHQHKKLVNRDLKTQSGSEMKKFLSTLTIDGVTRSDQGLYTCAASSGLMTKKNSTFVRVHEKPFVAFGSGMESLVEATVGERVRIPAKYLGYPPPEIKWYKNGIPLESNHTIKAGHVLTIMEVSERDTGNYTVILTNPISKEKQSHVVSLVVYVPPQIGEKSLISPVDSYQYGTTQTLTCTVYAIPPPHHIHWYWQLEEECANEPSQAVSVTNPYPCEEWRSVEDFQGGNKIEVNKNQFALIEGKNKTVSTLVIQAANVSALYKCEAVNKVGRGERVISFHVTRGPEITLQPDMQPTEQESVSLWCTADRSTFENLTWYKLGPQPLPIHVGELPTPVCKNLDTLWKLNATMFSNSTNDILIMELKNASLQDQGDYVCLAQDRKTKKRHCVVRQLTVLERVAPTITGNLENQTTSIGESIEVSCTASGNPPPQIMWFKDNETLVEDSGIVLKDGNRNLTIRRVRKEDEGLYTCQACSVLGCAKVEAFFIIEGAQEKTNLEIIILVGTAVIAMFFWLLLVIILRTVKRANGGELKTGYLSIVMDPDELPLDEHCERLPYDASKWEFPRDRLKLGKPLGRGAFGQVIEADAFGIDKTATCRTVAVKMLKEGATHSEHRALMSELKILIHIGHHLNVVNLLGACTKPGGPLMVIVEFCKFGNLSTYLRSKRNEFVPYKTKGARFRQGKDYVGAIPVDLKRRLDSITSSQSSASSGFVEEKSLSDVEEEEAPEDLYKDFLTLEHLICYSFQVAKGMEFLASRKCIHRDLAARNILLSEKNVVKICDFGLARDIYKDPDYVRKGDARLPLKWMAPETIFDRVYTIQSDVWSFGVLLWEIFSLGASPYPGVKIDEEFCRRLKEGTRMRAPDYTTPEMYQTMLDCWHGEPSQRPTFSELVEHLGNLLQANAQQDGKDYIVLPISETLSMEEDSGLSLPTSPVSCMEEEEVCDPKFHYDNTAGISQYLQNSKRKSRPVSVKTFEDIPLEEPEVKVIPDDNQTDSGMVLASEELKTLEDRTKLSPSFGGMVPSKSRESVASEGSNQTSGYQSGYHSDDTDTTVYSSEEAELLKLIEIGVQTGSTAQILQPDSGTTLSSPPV

IC50: 5 µM
SMILES: C/C(=C\C=C\CC(C)C(CC(=O)O)O[C@H]1O[C@@H](CO)[C@H](O)[C@H](O)[C@@H]1O)C(=O)O (stereo partly specified)
